# Source: ChEMBL document CHEMBL1153683, “Triply-convergent synthesis of two sets of homochiral cyclopent[a]indene carbacyclin analogs” (Bioorg Med Chem Lett, 1991)
# Species: Homo sapiens
# Assay: Compound was evaluated for the inhibition of collagen-induced platelet aggregation
# Assay type: functional
row,IC50,SMILES
1,> 100000 nM,O=C(O)CCc1ccc2c(c1)[C@H]1C[C@@H](O)[C@H](/C=C\[C@@H](O)C3CCCCC3)[C@H]1C2
2,> 100000 nM,O=C(O)Cc1ccc2c(c1)[C@H]1C[C@@H](O)[C@H](/C=C\[C@@H](O)C3CCCCC3)[C@H]1C2
3,180 nM,O=C(O)Cc1ccc2c(c1)[C@H]1C[C@@H](O)[C@H](C#C[C@@H](O)C3CCCCC3)[C@H]1C2

# Continued, compound first:
row,SMILES,IC50
1,O=C(O)Cc1ccc2c(c1)[C@H]1C[C@@H](O)[C@H](CC[C@@H](O)C3CCCCC3)[C@H]1C2,330 nM
2,O=C(O)CCc1ccc2c(c1)[C@H]1C[C@@H](O)[C@H](C#C[C@@H](O)C3CCCCC3)[C@H]1C2,330 nM
3,O=C(O)CCc1ccc2c(c1)[C@H]1C[C@@H](O)[C@H](CC[C@@H](O)C3CCCCC3)[C@H]1C2,2200 nM
